Data: ChEMBL document CHEMBL1156716, “Selenium containing heterocycles: synthesis, anti-inflammatory, analgesic and anti-microbial activities of some new 4-cyanopyridazine-3(2H)selenone derivatives” (Eur J Med Chem, 2008)

Key:
Rattus norvegicus [1] = test: Antiinflammatory activity in albino rat assessed as inhibition of carrageenan-induced paw edema at 10 mg/kg, ip after 1 hrs; type: functional; settings: route intraperitoneal
Rattus norvegicus [2] = test: Antiinflammatory activity in albino rat assessed as inhibition of carrageenan-induced paw edema at 10 mg/kg, ip after 4 hrs; type: functional; settings: route intraperitoneal
Rattus norvegicus [3] = test: Antiinflammatory activity in albino rat assessed as inhibition of carrageenan-induced paw edema at 10 mg/kg, ip after 5 hrs; type: functional; settings: route intraperitoneal
Rattus norvegicus [4] = test: Antiinflammatory activity in albino rat assessed as inhibition of carrageenan-induced paw edema at 10 mg/kg, ip after 3 hrs; type: functional; settings: route intraperitoneal
Rattus norvegicus [5] = test: Antiinflammatory activity in albino rat assessed as inhibition of carrageenan-induced paw edema at 10 mg/kg, ip after 0.5 hrs; type: functional; settings: route intraperitoneal
Rattus norvegicus [6] = test: Antiinflammatory activity in albino rat assessed as inhibition of carrageenan-induced paw edema at 10 mg/kg, ip after 2 hrs; type: functional; settings: route intraperitoneal
Mus musculus [7] = test: Analgesic activity in albino mouse assessed as effect on […] at 10 mg/kg, ip after 5 hrs by hot plate test; type: functional; settings: route intraperitoneal
Mus musculus [8] = test: Analgesic activity in albino mouse assessed as effect on […] at 10 mg/kg, ip after 1 hrs by hot plate test; type: functional; settings: route intraperitoneal
Mus musculus [9] = test: Analgesic activity in albino mouse assessed as effect on […] at 10 mg/kg, ip after 3 hrs by hot plate test; type: functional; settings: route intraperitoneal
Mus musculus [10] = test: Analgesic activity in albino mouse assessed as effect on […] at 10 mg/kg, ip after 0.5 hrs by hot plate test; type: functional; settings: route intraperitoneal
Mus musculus [11] = test: Analgesic activity in albino mouse assessed as effect on […] at 10 mg/kg, ip after 4 hrs by hot plate test; type: functional; settings: route intraperitoneal
Mus musculus [12] = test: Analgesic activity in albino mouse assessed as effect on […] at 10 mg/kg, ip after 2 hrs by hot plate test; type: functional; settings: route intraperitoneal
Mus musculus [13] = test: Acute toxicity in ip dosed albino mouse upto 250 mg/kg after 72 hrs; type: organism-based; design: dose 250 mg/kg, route intraperitoneal; settings: in vivo

Row | Compound | inhibition in vivo at 10 mg/kg (Rattus norvegicus [1]) [%] | inhibition in vivo at 10 mg/kg (Rattus norvegicus [2]) [%] | inhibition in vivo at 10 mg/kg (Rattus norvegicus [3]) [%] | inhibition in vivo at 10 mg/kg (Rattus norvegicus [4]) [%] | inhibition in vivo at 10 mg/kg (Rattus norvegicus [5]) [%] | inhibition in vivo at 10 mg/kg (Rattus norvegicus [6]) [%] | Activity (Mus musculus [7]) [%] | Activity (Mus musculus [8]) [%] | Activity (Mus musculus [9]) [%] | Activity (Mus musculus [10]) [%] | Activity (Mus musculus [11]) [%] | Activity (Mus musculus [12]) [%] | Activity (Mus musculus [13])
1 | CC(=O)C1=C(N)C2=C(c3ccccc3)C(c3ccccc3)=NNC2[Se]1 (centres undefined) | 17.2 | 28.5 | 33.5 | 20.5 | 8.8 | 20.5 |  |  |  |  |  |  | 
2 | CCOC(=O)C1=C(N)C2=C(c3ccccc3)C(c3ccccc3)=NNC2[Se]1 (centres undefined) | 17.2 | 41.6 | 44.4 | 35.2 | 8.8 | 23.5 | 33.4 | 42.8 | 41.3 | 21.6 | 39.6 | 39.8 | 
3 | NC1=C(C(=O)c2ccccc2)[Se]C2NN=C(c3ccccc3)C(c3ccccc3)=C12 (centres undefined) | 9 | 35.5 | 38.8 | 29.4 | 9 | 26.4 | 24.2 | 27.1 | 36.5 | 25.2 | 31.9 | 30.6 | 
4 | NC(=O)C1=C(N)C2=C(c3ccccc3)C(c3ccccc3)=NNC2[Se]1 (centres undefined) | 14.7 | 47.2 | 50 | 44.4 | 8.7 | 26.4 | 83.4 | 97.8 | 98.4 | 90.3 | 90.5 | 99.4 | Non-toxic
5 | N#CC1=C(N)C2=C(c3ccccc3)C(c3ccccc3)=NNC2[Se]1 (centres undefined) | 9.9 | 36.1 | 44.4 | 29.4 | 8.8 | 29.4 | 65.3 | 77.9 | 79.8 | 67.9 | 75.5 | 75.5 | 
6 | N#Cc1c(-c2ccccc2)c(-c2ccccc2)n[nH]c1=[Se] | 17.2 | 30.5 | 30.5 | 23.5 | 8.8 | 20.5 |  |  |  |  |  |  | 
7 | CC(=O)Oc1ccccc1C(=O)O [ASPIRIN] |  |  |  |  |  |  | 30.01 | 58.9 | 45.6 | 36.2 | 39.2 | 50.5 | 
8 | O=C1NC2(CCCCC2)NC2=C1[Se]C1NN=C(c3ccccc3)C(c3ccccc3)=C21 (centres undefined) | 9.9 | 30.5 | 38.8 | 23.5 | 8.7 | 23.5 |  |  |  |  |  |  | 
9 | COc1ccc2c(c1)c(CC(=O)O)c(C)n2C(=O)c1ccc(Cl)cc1 [INDOMETHACIN] | 20.5 | 52.7 | 57.5 | 44.1 | 11.7 | 32.3 |  |  |  |  |  |  | 
